Source: ChEMBL document CHEMBL3885881, “DrugMatrix”

Organism: Rattus norvegicus
Assay: DrugMatrix - Regimen: Daily Repeat
Format: toxicity, organism-based, Sprague-Dawley
Design: regimen Daily Repeat, gender Male, age 6-8 weeks
Conditions: in vivo, po, route oral GAVAGE, vehicle 100 % WATER; for ABSOLUTE BASOPHIL / ABSOLUTE EOSINOPHIL / ABSOLUTE LYMPHOCYTE / ABSOLUTE MONOCYTE / ABSOLUTE SEGMENTED NEUTROPHIL / BASOPHIL / EOSINOPHIL / ERYTHROCYTE COUNT / HEMATOCRIT / HEMOGLOBIN / LEUKOCYTE COUNT / LYMPHOCYTE / MEAN CORPUSCULAR HEMOGLOBIN / MEAN CORPUSCULAR HEMOGLOBIN CONCENTRATION / MEAN CORPUSCULAR VOLUME / MONOCYTE / NEUTROPHIL / NUCLEATED RED BLOOD CELLS: tissue Blood; for ALANINE AMINOTRANSFERASE / ALKALINE PHOSPHATASE / ASPARTATE AMINOTRANSFERASE / BLOOD UREA NITROGEN / CARBON DIOXIDE / CHLORIDE / CHOLESTEROL / CREATINE PHOSPHOKINASE / CREATININE / GLUCOSE / LACTATE DEHYDROGENASE / LIPASE / PHOSPHORUS / POTASSIUM / SODIUM / TOTAL BILIRUBIN / TOTAL PROTEIN / URIC ACID: tissue Plasma
[1] = 0 mg/kg, 72 h, dose level Control, time 3 day
[2] = 0 mg/kg, 120 h, dose level Control, time 5 day
[3] = 18 mg/kg, 72 h, dose level Low, time 3 day

Structure (SMILES): CN(C)CCCN1c2ccccc2Sc2ccc(Cl)cc21 [CHLORPROMAZINE]
- ABSOLUTE BASOPHIL [1]: 0 CELLS/uL
- ABSOLUTE EOSINOPHIL [1]: 108.67 CELLS/uL
- ABSOLUTE LYMPHOCYTE [1]: 10696 CELLS/uL
- ABSOLUTE MONOCYTE [1]: 216.67 CELLS/uL
- ABSOLUTE SEGMENTED NEUTROPHIL [1]: 1045.33 CELLS/uL
- BASOPHIL [1]: 0%
- EOSINOPHIL [1]: 1%
- ERYTHROCYTE COUNT [1]: 5.87 x10E6/uL
- HEMATOCRIT [1]: 38.5%
- HEMOGLOBIN [1]: 13.6 G/DL
- LEUKOCYTE COUNT [1]: 12.07 x10E3/uL
- LYMPHOCYTE [1]: 88.33%
- MEAN CORPUSCULAR HEMOGLOBIN [1]: 23.47 pg
- MEAN CORPUSCULAR HEMOGLOBIN CONCENTRATION [1]: 35.7 G/DL
- MEAN CORPUSCULAR VOLUME [1]: 65.63 fL
- MONOCYTE [1]: 2%
- NEUTROPHIL [1]: 8.67%
- NUCLEATED RED BLOOD CELLS [1]: 0 /100WBC
- ALANINE AMINOTRANSFERASE [1]: 60.67 u/L
- ALKALINE PHOSPHATASE [1]: 377.67 u/L
- ASPARTATE AMINOTRANSFERASE [1]: 85.33 u/L
- BLOOD UREA NITROGEN [1]: 15 mg/dL
- CARBON DIOXIDE [1]: 37 mmol/L
- CHLORIDE [1]: 97.67 MEQ/L
- CHOLESTEROL [1]: 70.67 mg/dL
- CREATINE PHOSPHOKINASE [1]: 361.67 u/L
- CREATININE [1]: 0.18 mg/dL
- GLUCOSE [1]: 154 mg/dL
- LACTATE DEHYDROGENASE [1]: 99 u/L
- LIPASE [1]: 12.67 u/L
- PHOSPHORUS [1]: 9.53 mg/dL
- POTASSIUM [1]: 5.55 MEQ/L
- SODIUM [1]: 143.1 MEQ/L
- TOTAL BILIRUBIN [1]: 0.2 mg/dL
- TOTAL PROTEIN [1]: 5.97 G/DL
- URIC ACID [1]: 0.77 mg/dL
- ABSOLUTE BASOPHIL [2]: 0 CELLS/uL
- ABSOLUTE EOSINOPHIL [2]: 0 CELLS/uL
- ABSOLUTE LYMPHOCYTE [2]: 9535 CELLS/uL
- ABSOLUTE MONOCYTE [2]: 182 CELLS/uL
- ABSOLUTE SEGMENTED NEUTROPHIL [2]: 783 CELLS/uL
- BASOPHIL [2]: 0%
- EOSINOPHIL [2]: 0%
- ERYTHROCYTE COUNT [2]: 5.35 x10E6/uL
- HEMATOCRIT [2]: 34.17%
- HEMOGLOBIN [2]: 13.17 G/DL
- LEUKOCYTE COUNT [2]: 10.5 x10E3/uL
- LYMPHOCYTE [2]: 89.67%
- MEAN CORPUSCULAR HEMOGLOBIN [2]: 24.67 pg
- MEAN CORPUSCULAR HEMOGLOBIN CONCENTRATION [2]: 38.57 G/DL
- MEAN CORPUSCULAR VOLUME [2]: 63.9 fL
- MONOCYTE [2]: 1.67%
- NEUTROPHIL [2]: 8.67%
- NUCLEATED RED BLOOD CELLS [2]: 0 /100WBC
- ALANINE AMINOTRANSFERASE [2]: 46.67 u/L
- ALKALINE PHOSPHATASE [2]: 343.67 u/L
- ASPARTATE AMINOTRANSFERASE [2]: 71 u/L
- BLOOD UREA NITROGEN [2]: 11.67 mg/dL
- CARBON DIOXIDE [2]: 27 mmol/L
- CHLORIDE [2]: 105.33 MEQ/L
- CHOLESTEROL [2]: 70.67 mg/dL
- CREATINE PHOSPHOKINASE [2]: 208.67 u/L
- CREATININE [2]: 0.1 mg/dL
- GLUCOSE [2]: 161.33 mg/dL
- LACTATE DEHYDROGENASE [2]: 58 u/L
- LIPASE [2]: 9.33 u/L
- PHOSPHORUS [2]: 12.7 mg/dL
- POTASSIUM [2]: 5.59 MEQ/L
- SODIUM [2]: 147.1 MEQ/L
- TOTAL BILIRUBIN [2]: 0.17 mg/dL
- TOTAL PROTEIN [2]: 5.97 G/DL
- URIC ACID [2]: 0.73 mg/dL
- ABSOLUTE BASOPHIL [3]: 0 CELLS/uL
- ABSOLUTE EOSINOPHIL [3]: 0 CELLS/uL
- ABSOLUTE LYMPHOCYTE [3]: 8093.33 CELLS/uL
- ABSOLUTE MONOCYTE [3]: 80.67 CELLS/uL
- ABSOLUTE SEGMENTED NEUTROPHIL [3]: 392.67 CELLS/uL
- BASOPHIL [3]: 0%
- EOSINOPHIL [3]: 0%
- ERYTHROCYTE COUNT [3]: 5.16 x10E6/uL
- HEMATOCRIT [3]: 34.47%
- HEMOGLOBIN [3]: 13.4 G/DL
- LEUKOCYTE COUNT [3]: 8.57 x10E3/uL
- LYMPHOCYTE [3]: 94.33%
- MEAN CORPUSCULAR HEMOGLOBIN [3]: 25.97 pg
- MEAN CORPUSCULAR HEMOGLOBIN CONCENTRATION [3]: 38.87 G/DL
- MEAN CORPUSCULAR VOLUME [3]: 66.8 fL
- MONOCYTE [3]: 1%
- NEUTROPHIL [3]: 4.67%
- NUCLEATED RED BLOOD CELLS [3]: 0 /100WBC
- ALANINE AMINOTRANSFERASE [3]: 60.67 u/L
- ALKALINE PHOSPHATASE [3]: 286 u/L
- ASPARTATE AMINOTRANSFERASE [3]: 101 u/L
- BLOOD UREA NITROGEN [3]: 15 mg/dL
- CARBON DIOXIDE [3]: 38 mmol/L
- CHLORIDE [3]: 98 MEQ/L
- CHOLESTEROL [3]: 65.67 mg/dL
- CREATINE PHOSPHOKINASE [3]: 499.33 u/L
- CREATININE [3]: 0.32 mg/dL
- GLUCOSE [3]: 131 mg/dL
- LACTATE DEHYDROGENASE [3]: 79 u/L
- LIPASE [3]: 10 u/L
- PHOSPHORUS [3]: 8.37 mg/dL
- POTASSIUM [3]: 5.57 MEQ/L
- SODIUM [3]: 142.3 MEQ/L
- TOTAL BILIRUBIN [3]: 0.23 mg/dL
- TOTAL PROTEIN [3]: 5.97 G/DL
